Data published in US20050009052A1 (priority 2003, published 2005).

What was measured:
pac10Δ/pac10Δ strain [1] = assay type: cell-based, Saccharomyces cerevisiae; conditions: pac10Δ/pac10Δ grown individually, YPD, 30° C.; staurosporine 1 μM, caffeine 8 mM, latrunculin B 2 μg/ml
rlm1Δ/rlm1Δ strain [2] = experiment: Growth of individually cultured yeast strain with inhibitor (O.D.600); assay type: cell-based, Saccharomyces cerevisiae; conditions: rlm1Δ/rlm1Δ grown individually, YPD, 30° C.; staurosporine 1 μM, caffeine 8 mM, tunicamycin 0.4 μg/ml
act1Δ/ACT1 strain = experiment: Differential Tag Length Analysis (DTLA) of 11-strain mixed yeast culture with inhibitor; assay type: cell-based, Saccharomyces cerevisiae; conditions: 20 hours
Protocol: (§1) Strains, media and inhibitors.
(§2) Tag amplification and capillary electrophoresis. Oligonucleotides Fluor-1 (6-Fam-[…]) and Pho-1 (Phosphate-[…]) were used for the amplification of tag DNAs. PCR reactions were performed in 50 μl reaction volume containing the 2 primers at a final concentration of 1 μM each and 2.5 units of Stoffel fragment AmpliTaq DNA polymerase (Applied Biosystems, Foster City, Calif.). After an initial 2 min denaturing step at 94° C., the reactions underwent 30 amplification cycles (94° C., 30 sec; 60° C., 30 sec; 72° C., 30 sec with a 6 sec increase in extension time per cycle) followed by a post-amplification extension step (72° C., 10 min). As a template for the PCR reactions, 100 ng of plasmid DNA, 700 ng of genomic DNA (extracted from yeast strains using MasterPure Yeast DNA purification kit; Epicentre, Madison, Wis.), or an equivalent to 0.5 μl of saturated culture of yeast protoplasts (prepared by using lyticase) (see, e.g., Chen et al., Biotechniques 19:744-746 (1995)) was used. The PCR products were incubated with λ-exonuclease for 1 h at 37° C. and then purified using MinElute PCR purification kit (QIAGEN Inc., Valencia, Calif.). After 1 h digestion with EcoRI, the PCR products were again purified with the same kit and adjusted to 70% formamide and 1 mM EDTA and analyzed by capillary electrophoresis on ABI Prism 3700 DNA analyzer (Applied Biosystems, Foster City, Calif.) using 3700 POP-5 polymer.
(§3) Data analysis. To access the raw fluorescence data collected by ABI Prism 3700 DNA analyzer, a Visual Basic program was used that extracted the electropherogram values and converted them into a text file format. Peak quantitation was then performed using Caesar Workstation 5.0 (SciBridge Software, Los Angeles, Calif.). In the majority of cases, the relative representation of each tag in the PCR product was calculated by dividing the area under the corresponding tag peak by the sum of all tag peak areas. For the measurement of different input amounts of tag 42, the average peak area of the other 10 tags was first calculated. The area value of tag 42 was then divided by this averaged value to give normalized tag 42 area.

bro1Δ/bro1Δ strain [3] = experiment: as above; assay type: cell-based, Saccharomyces cerevisiae; conditions: 20 hours; for increase of strain representation in the mixture: staurosporine 1 μM, latrunculin B 2 μg/ml
Protocol: as §1, §2, §3

gim4Δ/gim4Δ strain [4] = experiment: as above; assay type: cell-based, Saccharomyces cerevisiae
Protocol: as §1, §2, §3

pde2Δ/pde2Δ strain [5] = experiment: as above; assay type: cell-based, Saccharomyces cerevisiae; conditions: 20 hours
Protocol: as §1, §2, §3

pkc1Δ/PKC1 strain = experiment: as above; assay type: cell-based, Saccharomyces cerevisiae; conditions: 20 hours, caffeine 8 mM
Protocol: as §1, §2, §3

rlm1Δ/rlm1Δ strain [6] = experiment: as above; assay type: cell-based, Saccharomyces cerevisiae; conditions: 20 hours
Protocol: as §1, §2, §3

bro1Δ/bro1Δ strain [7] = conditions: bro1Δ/bro1Δ grown individually, YPD, 30° C.; staurosporine 1 μM, caffeine 8 mM
pdr5Δ/pdr5Δ strain [8] = assay type: cell-based, Saccharomyces cerevisiae; conditions: pdr5Δ/pdr5Δ grown individually, YPD, 30° C.; staurosporine 1 μM, latrunculin B 2 μg/ml
gim4Δ/gim4Δ strain [9] = assay type: cell-based, Saccharomyces cerevisiae; conditions: gim4Δ/gim4Δ grown individually, YPD, 30° C.; staurosporine 1 μM, latrunculin B 2 μg/ml
pde2Δ/pde2Δ strain [10] = experiment: Growth of individually cultured yeast strain with inhibitor (O.D.600); assay type: cell-based, Saccharomyces cerevisiae; conditions: pde2Δ/pde2Δ grown individually, YPD, 30° C.; staurosporine 1 μM, latrunculin B 2 μg/ml
ACT1/act1Δ strain = assay type: cell-based, Saccharomyces cerevisiae; conditions: ACT1/act1Δ grown individually, YPD, 30° C.; staurosporine 1 μM, latrunculin B 2 μg/ml
pac10Δ/pac10Δ strain [11] = assay type: cell-based, Saccharomyces cerevisiae; conditions: pac10Δ/pac10Δ in mixed culture, 20 hours
pdr5Δ/pdr5Δ strain [12] = experiment: Differential Tag Length Analysis (DTLA) of 11-strain mixed yeast culture with inhibitor; assay type: cell-based, Saccharomyces cerevisiae; conditions: pdr5Δ/pdr5Δ in mixed culture, 20 hours; latrunculin B 2 μg/ml
Protocol: as §1, §2, §3

alg7Δ/ALG7 strain [13] = assay type: cell-based, Saccharomyces cerevisiae; conditions: alg7Δ/ALG7 grown individually, YPD, 30° C.; staurosporine 1 μM, tunicamycin 0.4 μg/ml
alg7Δ/ALG7 strain [14] = experiment: Differential Tag Length Analysis (DTLA) of 11-strain mixed yeast culture with inhibitor; assay type: cell-based, Saccharomyces cerevisiae; conditions: alg7Δ/ALG7 in mixed culture, 20 hours; tunicamycin 0.4 μg/ml
Protocol: as §1, §2, §3

Cn1c(=O)c2c(ncn2C)n(C)c1=O [caffeine]
sensitivity of growth to inhibitor (pac10Δ/pac10Δ strain [1]): sensitive
sensitivity of growth to inhibitor (rlm1Δ/rlm1Δ strain [2]): sensitive
effect on growth of strain in mixed culture (act1Δ/ACT1 strain; caffeine 8 mM): decreased growth
effect on growth of strain in mixed culture (bro1Δ/bro1Δ strain [3]; caffeine 8 mM): decreased growth
effect on growth of strain in mixed culture (gim4Δ/gim4Δ strain [4]; caffeine 8 mM): exhibited sensitivity in the mixture
effect on growth of strain in mixed culture (pde2Δ/pde2Δ strain [5]; caffeine 8 mM): decreased growth
increase of strain representation in the mixture (pkc1Δ/PKC1 strain): 97%
effect on growth of strain in mixed culture (rlm1Δ/rlm1Δ strain [6]; caffeine 8 mM): decreased growth
sensitivity of growth to inhibitor (bro1Δ/bro1Δ strain [7]): sensitive

C/C1=C/C(=O)O[C@@H]2C[C@@H](CC[C@H](C)/C=C\CC1)O[C@@](O)([C@@H]1CSC(=O)N1)C2 [latrunculin B]
sensitivity of growth to inhibitor (pdr5Δ/pdr5Δ strain [8]): inhibited the growth
sensitivity of growth to inhibitor (pac10Δ/pac10Δ strain [1]): inhibited the growth
sensitivity of growth to inhibitor (gim4Δ/gim4Δ strain [9]): inhibited the growth
sensitivity of growth to inhibitor (pde2Δ/pde2Δ strain [10]): inhibited the growth
sensitivity of growth to inhibitor (ACT1/act1Δ strain): inhibited the growth
strain representation compared with the non-treated culture (reduced to) (pac10Δ/pac10Δ strain [11]; latrunculin B 2 μg/ml): less than 50%
strain representation compared with the non-treated culture (reduced to) (act1Δ/ACT1 strain; act1Δ/ACT1 in mixed culture, latrunculin B 2 μg/ml): less than 50%
increase of strain representation in the mixture (bro1Δ/bro1Δ strain [3]): 123%
strain representation compared with the non-treated culture (reduced to) (gim4Δ/gim4Δ strain [4]; gim4Δ/gim4Δ in mixed culture, 20 hours, latrunculin B 2 μg/ml): less than 50%
strain representation compared with the non-treated culture (reduced to) (pde2Δ/pde2Δ strain [5]; pde2Δ/pde2Δ in mixed culture, latrunculin B 2 μg/ml): less than 50%
strain representation compared with the non-treated culture (reduced to) (pdr5Δ/pdr5Δ strain [12]): less than 50%

CN[C@@H]1C[C@H]2O[C@@](C)([C@@H]1OC)n1c3ccccc3c3c4c(c5c6ccccc6n2c5c31)C(=O)NC4 [staurosporine]
increase of strain representation in the mixture (bro1Δ/bro1Δ strain [3]): 340%
increase of strain representation in the mixture (pde2Δ/pde2Δ strain [5]; staurosporine 1 μM): 200%

tunicamycin
sensitivity of growth to inhibitor (alg7Δ/ALG7 strain [13]): slowed the growth
sensitivity of growth to inhibitor (rlm1Δ/rlm1Δ strain [2]): slowed the growth
increase of strain representation in the mixture (pac10Δ/pac10Δ strain [11]; tunicamycin 0.4 μg/ml): 82%
reduction of strain relative to the non-treated culture (alg7Δ/ALG7 strain [14]): 83%
decrease/reduction of strain relative to the non-treated culture (rlm1Δ/rlm1Δ strain [6]; rlm1Δ/rlm1Δ in mixed culture, staurosporine 1 μM, tunicamycin 0.4 μg/ml): 59%
